For three molecules, EC50 results are on record in ChEMBL document CHEMBL5726212, “Substituted pyridines as inhibitors of human immunodeficiency virus replication” (2019).

Broadly, the EC50 is the concentration needed to bring the measured effect to its halfway point.

This experiment in a line: Inhibition of HIV replication: A recombinant NL-RLuc proviral clone was constructed in which a section of the nef gene from NL4-3 was replaced with the Renilla Luciferase gene. This virus is fully infectious and can undergo multiple cycles of replication in cell culture. In addition, the luciferous reporter provides a simple and easy method for quantitating the extent of virus growth and consequently, the antiviral activity of test compounds. The plasmid pNLRLuc contains the proviral NL-Rluc DNA cloned into pUC18 at the PvuII site. The NL-RLuc virus was prepared by transfection of 293T cells with the plasmid pNLRLuc. Transfections were performed using the LipofectAMINE PLUS kit from Invitrogen (Carlsbad, Calif.) according to the manufacturer and the virus generated was titered in MT-2 cells. For susceptibility analyses, the titrated virus was used to infect MT-2 cells in the presence of compound, and after 5 days of incubation, cells were processed and quantitated for virus growth by the amount of expressed luciferase. Assay media was RPMI 1640 supplemented with 10% heat inactivated fetal bovine serum (FBS), 100 units/ml penicillin G/100 units/ml streptomycin, 10 mM HEPES buffer pH 7.55 and 2 mM L-glutamine. The results from at least 2 experiments were used to calculate the EC50 values. Luciferase was quantitated using the Dual Luciferase kit from Promega (Madison, Wis.). Susceptibility of viruses to compounds was determined by incubation in the presence of serial dilutions of the compound. The 50% effective concentration (EC50) was calculated by using the exponential form of the median effect equation where (Fa)=1/[1+(ED50/drug conc.)m] (Johnson V A, Byington R T. Infectivity Assay. In Techniques in HIV Research. ed. Aldovini A, Walker B D. 71-76. New York: Stockton Press.1990). Format: cell-based.

Consider `Cc1ccc(CN2CCc3cc(-c4c(C)nc(C)c([C@H](OC(C)(C)C)C(=O)O)c4N4CCC(C)(C)CC4)ccc3C2)cc1C`, for which the EC50 was below 100 nM. Moreover, the half-maximal effective concentration (EC50) (HEK-293T) is below 100 nM.

Take `COc1cc(F)cc(F)c1CN1CCc2cc(-c3c(C)nc(C)c([C@H](OC(C)(C)C)C(=O)O)c3N3CCC(C)(C)CC3)ccc2C1`: the EC50 was below 100 nM. The EC50 (HEK-293T) is below 100 nM.

In the case of `COc1cc(F)c(CN2CCc3cc(-c4c(C)nc(C)c([C@H](OC(C)(C)C)C(=O)O)c4N4CCC(C)(C)CC4)ccc3C2)c(F)c1`, the concentration giving a half-maximal response (EC50) is below 100 nM. For the same molecule, the EC50 (HEK-293T) is below 100 nM.
